Data as given in patent US20250123282A1, “METHODS FOR EVALUATION AND TREATMENT OF TYROSINE KINASE INHIBITOR (TKI)-RESISTANT ACUTE MYELOID LEUKEMIA” (LOMA LINDA UNIVERSITY, priority 2021, published 2025).

Experiments:
MV4-11 cells [1] = test: FACS time course of CD44+pBAD+ and Ki67+CD33+CD44+ populations in TKI-treated MV4-11; type: cell-based, human
From the text: (§1) To follow the cell fate of TKI-treated MV4-11 and MOLM-14, culturing of blasts were continued by performing medium change every 2-3 days. […] The BAD protein is a pro-apoptotic member of the BCL-2 gene family, which is involved in initiating apoptosis. Dephosphorylated BAD is pro-apoptotic by binding BCL-2 and inactivating BCL-2, while phosphorylated BAD (pBAD) is anti-apoptotic by leaving BCL-2 free to inhibit BAX-triggered apoptosis.
(§2) Small Molecular Inhibitors and in vitro & ex vivo Treatment. […] The dose of 80 nM for the four TKIs was selected based on their dose-dependent cytotoxicity in previous reports. […] Both GILT and QUIZ were reported to start to suppress the tumorigenic clustering and c-Kit at the dose of 80 nM. […] The combination of 5 μM 5-Azacitidine (AZA) and 80 nM 1α,25-Dihydroxyvitamin D3 (VD3) was added to the experimental group similar to the previous report. As combination agents to treat blasts in vitro, one dose of 80 nM GILT with one dose of either 100 nM Venetoclax (BCL2 inhibitor), 10 μM (R)-Lisofylline (STAT4 inhibitor), 100 nM AZD1208 (PIM inhibitor), 500 nM PF-06826647 (TYK2 inhibitor), or 500 nM AT9283 (JAK2/3 inhibitor) were added to 1 ml of 1×10^6 cells for each experimental group in 24 well plates. Three days after the one dose treatment, cells were then collected for either analyses by FACS and qPCR, or re-plated into 24 well plates for continued culture. At different time points, re-plated cells were collected for analyses by FACS and qPCR. Medium change was performed every 2-3 days.
(§3) Flow Cytometry (FACS). Cells were harvested and examined for the expression of cell surface biomarkers (CD) and intracellular proteins by multichromatic FACS as previously described. About 1×10^4˜10^6 cells in 100 μl FACS buffer (PBS containing 1% FBS and 0.05% sodium azide) were stained with various fluorescence-conjugated antibodies specific for the desired cell surface proteins at 4° C. for 30 min. The surface-stained cells were then fixed and permeabilized using the appropriate reagents (e.g. the BD Pharmingen Cytofix/Cytoperm buffer) and stained with different fluorescence-conjugated antibodies specific for the desired intracellular proteins at 4° C. for 2 hours in the permeabilizing buffer (e.g. the BD Perm/Wash buffer). Concentrations of the Abs were used per the manufacturers' recommendations. Finally, the cells were washed twice in the permeabilizing buffer and twice in the FACS buffer before being analyzed on the BD FACSAria II. Data was analyzed using the FlowJo software (Tree Star Inc., Ashland, OR).

MOLM-14 cells [2] = test: FACS of TKI-treated MOLM-14 cells in vitro (viable blasts, pBAD); type: cell-based, human; conditions: 3 days after the treatment
Method: (§4) The AML cells were analyzed at different time points after exposure to TKI (3 days, 10 days, 20 days, and 28 days). […] After 3 days, FACS of the surface markers and intracellular proteins, including CD14, CD33, CD44, and Ki67, were performed. FIGS. 1A-1E depicts therapeutic effect of different TKIs on MV4-11 and MOLM-14 cells in vitro (N=6). […] The circles indicate the group of viable blasts located in a FACS plot and green arrows indicate the dying tendency of blasts which will become positive for viability dye during the next few days. FIGS. 1C and 1D are graphical representations of the cumulative FACS percentage data of viable MV4-11 and MOLM-14 cells. *P<0.05. […]
as §3, with “Cells were harvested and examined for the expression of cell surface biomarkers (CD) and intracellular proteins by multichromatic FACS as previously described.” left out, “Concentrations of the Abs were used per the manufacturers' recommendations.” left out, “Data was analyzed using the FlowJo software (Tree Star Inc., Ashland, OR).” left out

MOLM-14 cells [3] = test: Phase-bright imaging of re-growth of TKI-treated MOLM-14; type: cell-based, human; conditions: 10 days after TKI treatment
From the text: as §1
as §2, with “At different time points, re-plated cells were collected for analyses by FACS and qPCR. Medium change was performed every 2-3 days.” left out

MV4-11 cells [4] = test: Phase-bright imaging of re-growth of TKI-treated MV4-11; type: cell-based, human
From the text: as §1, §2
Imaging Acquisition. Phase-bright images were taken using an Olympus 1X71 inverted microscope and were processed using an Olympus cellSens Dimension 1.15 Imaging Software.

MV4-11 = conditions: 100 nM, cited from earlier work
MV4-11 cells [5] = test: FACS of TKI-treated MV4-11 cells in vitro (viable blasts, Ki67, pBAD); type: cell-based, human; conditions: 3 days after the treatment
Method: as §4
as §3, with “Cells were harvested and examined for the expression of cell surface biomarkers (CD) and intracellular proteins by multichromatic FACS as previously described.” left out, “Concentrations of the Abs were used per the manufacturers' recommendations.” left out, “Data was analyzed using the FlowJo software (Tree Star Inc., Ashland, OR).” left out

primary AML BMMNC = test: Ex vivo combination treatment of primary AML BMMNC (FACS, imaging, qPCR); type: cell-based, human; conditions: 80 nM GILT
Method: (§5) Whether targeting the MIF-CXCR2 signaling pathway would effectively treat AML blasts were investigated. First, the combination of GILT with ribosomal protein S19 (RPS19) on MV4-11 blasts was tested in vitro. RPS19, a MIF inhibitor, has been reported to suppress cisplatin-activated MIF-CD74-NFκB signaling pathway in acute kidney injury. […] The combination of 80 nM GILT with 50 uM SB225002, a CXCR2-inhibitor (CXCR2-I) on MV4-11 blasts in vitro were examined. […] The anti-leukemic effect of combining GILT with CXCR2-I on primary BMMNC ex vivo were examined. […] There may be alternative cytokine pathways compensating for the defect of MIF-CXCR2 pathways.
The combination of 80 nM GILT and 50 uM BAY11-7821 (a NFκB-I) was tested as a novel therapeutic approach for AML.
Next, the anti-leukemic effect of the combination was examined on primary BMMNC from refractory AML patients (Patient #7, Table 4).
Human Samples. AML bone marrow (BM) mononuclear cells (BMMNC) (Patients #1-7, Table 4) were obtained from the City of Hope National Medical Center (COHNMC). All donor patients signed an informed consent form. Sample acquisition was approved by the Institutional Review Boards at the LLUMC and the COHNMC in accordance with an assurance filed with and approved by the Department of Health and Human Services, and it met all requirements of the Declaration of Helsinki.
(§6) For MIF in vitro experiments, different doses of MIF were added to 1 ml of 1×10^6 MV4-11 cells or RAW264.7 cells for each experimental group in 24-well plates. Two days after the one dose treatment, cells were then collected for either analyses by FACS and qPCR. As combination agents to treat blasts in vitro or ex vivo, one dose of 80 nM GILT with one dose of different inhibitors were added to 1 ml of 1×10^6 MV4-11 cells or 1 ml of 0.5-1×10^6 primary AML BMMNC for each experimental group in 24-well plates. Dose-dependent experiments of CXCR2 inhibitor and NFκB inhibitor with or without 80 nM GILT were performed. […] Three days after the one dose treatment, cells were then collected for either analyses by FACS and qPCR.
as §3
RNA Isolation and Real-Time Polymerase Chain Reaction (qPCR) analysis. MV4-11 and MOLM-14 cells were cultured with the presence of TKI drugs for 72 hours or re-plated 28 days after the treatment of TKI drugs. Cells were isolated for RNA isolation and qPCR analysis as previously described. Total RNA was isolated using the RNeasy Micro Kit (Qiagen) according to the manufacturer's instruction. First-strand cDNA was synthesized using the SuperScript III Reverse Transcriptase (Invitrogen; Life Technologies). With an Applied Biosystems 7900HT Real-Time PCR machine, qPCR was performed and analyzed using known primers for the specific markers. The PCR conditions were 10 minutes at 95° C. followed by 40 cycles of 10 seconds at 95° C. and 15 seconds at 60° C. The relative expression level of a gene was determined using the ΔΔCt method and normalized to GAPDH.

MV4-11 blasts = test: GILT combined with MIF inhibitor or CXCR2 inhibitor on MV4-11 blasts in vitro (FACS); type: cell-based, human; conditions: for most effective dose on MV4-11 based on the FACS analyses: dose-dependent experiments with or without 80 nM GILT
Method: as §5, §6, §3

MV4-11 cells [6] = test: Recombinant human MIF added to MV4-11 cultures (FACS Ki67, qPCR); type: cell-based
Method: (§7) To examine the role of MIF in the proliferation of AML blasts, different doses of recombinant human MIF peptides were added to the cell cultures of MV4-11 (AML blast cell line). […] To investigate how MIF affects immune cells, MIF was tested on RAW264.7 (a macrophage cell line). […] The findings are consistent with a previous report that primary AML blasts constitutively express MIF, stimulating bone marrow mesenchymal cells to release CXCL8 (IL-8), a ligand that also binds to CXCR2, to sustain blasts' proliferation. In addition, CXCL1/5/8 were routinely and highly released (a median level >1000 pg/mL) in the supernatants of culturing naïve AML patient cells ex vivo.
For MIF in vitro experiments, different doses of MIF were added to 1 ml of 1×10^6 MV4-11 cells or RAW264.7 cells for each experimental group in 24-well plates. Two days after the one dose treatment, cells were then collected for either analyses by FACS and qPCR. […]
as §3, with “Cells were harvested and examined for the expression of cell surface biomarkers (CD) and intracellular proteins by multichromatic FACS as previously described.” left out, “Concentrations of the Abs were used per the manufacturers' recommendations.” left out
RNA Isolation and Real-Time Polymerase Chain Reaction (qPCR) analysis. […] With an Applied Biosystems 7900HT Real-Time PCR machine, qPCR was performed and analyzed using known primers for the specific markers. […] The relative expression level of a gene was determined using the ΔΔCt method and normalized to GAPDH.

[7] = test system: RAW264.7 (a macrophage cell line); test: Recombinant human MIF added to RAW264.7 cultures (FACS Ki67); type: cell-based; conditions: 5 ng/ml MIF; 2 days
Method: as §7, with “vivo. […]” for “vivo.”
as §3, with “Cells were harvested and examined for the expression of cell surface biomarkers (CD) and intracellular proteins by multichromatic FACS as previously described.” left out, “Concentrations of the Abs were used per the manufacturers' recommendations.” left out, “Data was analyzed using the FlowJo software (Tree Star Inc., Ashland, OR).” left out

[8] = MV4-11, 10 days after TKI treatment
[9] = MV4-11, 20 days after TKI treatment
[10] = MV4-11, 28 days after TKI treatment
[11] = primary BMMNC ex vivo (Patient #2 and #3), 50 uM CXCR2-I
[12] = newly diagnosed AML, Patient #5, 50 uM BAY11-7821

CNC(=O)c1cc(Oc2ccc(NC(=O)Nc3ccc(Cl)c(C(F)(F)F)c3)cc2)ccn1 [SORA, Sorafenib]
population of viable CD44+pBAD+ cells (MV4-11 cells [1]; [8]): 0.24%
population of viable Ki67+CD33+CD44+ cells (MV4-11 cells [1]; [8]): 2.54%
population of viable CD44+pBAD+ cells (MV4-11 cells [1]; [9]): 0.8%
population of viable Ki67+CD33+CD44+ cells (MV4-11 cells [1]; [9]): 1.62%
population of viable Ki67+CD33+CD44+ cells (MV4-11 cells [1]; [10]): 2.82%
pBAD expression in MOLM-14 (FACS) (MOLM-14 cells [2]): significant increase
re-growth / tumorigenic clusters of MOLM-14 (MOLM-14 cells [3]): grew confluent
newly formed blast clusters (morphology) (MV4-11 cells [4]; 3 days after TKI treatment): observed
re-growth / tumorigenic clusters of MV4-11 (MV4-11 cells [4]; 10 days after TKI treatment): grew confluent
apoptosis and cell cycle arrest in MV4-11 (MV4-11; 72-hour treatment in vitro): significantly induce
pBAD expression in MV4-11 (FACS) (MV4-11 cells [5]): significant increase

O=C(Nc1ccc([N+](=O)[O-])cc1O)Nc1ccccc1Br [CXCR2-I, SB225002]
percentage of Ki67+CD13+ blasts (primary AML BMMNC; [11]): 14.3%
percentage of viable CD33+CD13+ primary blasts (primary AML BMMNC; [11]): 3.11%
percentage of Ki67+CD44+ blasts (MV4-11 blasts; MV4-11, 80 nM GILT, 50 uM SB225002, 3 days): 5.7%
most effective dose on MV4-11 based on the FACS analyses (MV4-11 blasts): 50 µM

CO[C@@H]1[C@H](N(C)C(=O)c2ccccc2)C[C@H]2O[C@]1(C)n1c3ccccc3c3c4c(c5c6ccccc6n2c5c31)C(=O)NC4 [MIDO, Midostaurin]
population of viable CD44+pBAD+ cells (MV4-11 cells [1]; [8]): 0.2%
population of viable Ki67+CD33+CD44+ cells (MV4-11 cells [1]; [8]): 2.54%
population of viable CD44+pBAD+ cells (MV4-11 cells [1]; [9]): 0.43%
population of viable Ki67+CD33+CD44+ cells (MV4-11 cells [1]; [9]): 1.41%
population of viable CD44+pBAD+ cells (MV4-11 cells [1]; [10]): 1.23%
population of viable Ki67+CD33+CD44+ cells (MV4-11 cells [1]; [10]): 2.54%
reduction of viable MV4-11 (MV4-11): 60%

Cc1ccc(S(=O)(=O)C=CC#N)cc1 [NFκB-I, BAY11-7082 (BAY11-7821)]
percentage of Ki67+CD33+ proliferating blasts (primary AML BMMNC; [12]): 25%
percentage of viable CD33+CD13+ primary blasts (primary AML BMMNC; [12]): 0.14%
most effective dose on MV4-11 based on the FACS analyses (MV4-11 blasts): 50 µM

B1: MIF: recombinant human macrophage migration inhibitory factor (Peprotech 300-69) (protein, UniProt P14174 2-115, looked up)
Macrophage migration …: PMFIVNTNVPRASVPDGFLSELTQQLAQATGKPPQYIAVHVVPDQLMAFGGSSEPCALCSLHSIGKIGGAQNRSYSKLLCGLLAERLRISPDRVYINYYDMNAANVGWNNSTFA
MV4-11 proliferation (percentage of Ki67+) (MV4-11 cells [6]; 5 ng/ml MIF, the lowest dose, 2 days): induce MV4-11's proliferation
gene expressions of CXCL1, CXCL5, CXCL8 (IL-8), CDK4 and CYCLIN E1 (MV4-11 cells [6]; MV4-11, different doses of MIF, qPCR): effectively induce
CXCR2 expression in MV4-11 blasts (MV4-11 cells [6]; exogenous recombinant MIF in vitro): effectively induced
RAW264.7 proliferation (Ki67) [7]: effectively suppressed
